Experimental data published in patent publication US8017612B2, “Piperazine compound and use thereof as a HCV polymerase inhibitor” (priority 2006, dated 2011).

Tests used:
[1] = target: T1, HCV polymerase (NS5B) type 1a (Hepatitis C virus genotype 1a, UniProt P26664); test: Assay of enzyme (HCV polymerase) inhibitory activity, type 1a enzyme; type: biochemical, HCV type 1a (cloned from the blood of patients)
T1 construct: made in house; host or cells: Escherichia coli (by the 'similar method' of the 1b enzyme)
Procedure, shortened: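 NS5B Δ47 C-term His6 (type 1a, 1.5 μg/ml); substrate RNA 5 μg/ml; ATP/GTP/CTP 50 μM, UTP 2 μM + [5,6-3H]UTP; Tris pH 7.5, MgCl2 5 mM; 25° C, 60 min. TCA/pyrophosphate stop, GF/B filter, scintillation. IC50 vs no-compound control.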

[2] = target: T2, HCV polymerase (NS5B) type 1b (Hepatitis C virus genotype 1b, UniProt P26663); test: Assay of enzyme (HCV polymerase) inhibitory activity, type 1b enzyme; type: biochemical, HCV BK strain (type 1b)
T2 construct: a region encoding NS5B (J Virol 1991 March, 65(3), 1105-13, 544 amino acids after deletion of 47 amino acids on the C-terminal); 6xHis (C); made in house; host or cells: Escherichia coli
Procedure, shortened: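 Rxn: NS5B 1b (BK, ΔC47, His6) 0.5 μg/ml; substrate RNA 5 μg/ml; ATP/GTP/CTP 50 μM, UTP 2 μM + [5,6-3H]UTP; 20 mM Tris pH 7.5, 5 mM MgCl2, 50 mM NaCl, 1 mM EDTA/DTT. 25 °C, 60 min. Stop with TCA/pyrophosphate, filter, scintillation count; IC50 vs. untreated.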

[3] = HCV polymerase inhibitory activity (IC50), 1a, type 1a enzyme 1.5 μg/ml, 25° C., 60 min
[4] = HCV polymerase inhibitory activity (IC50), 1b, type 1b enzyme 0.5 μg/ml, 25° C., 60 min
[5] = HCV polymerase inhibitory activity IC50, 1a, type 1a enzyme
[6] = HCV polymerase inhibitory activity IC50, 1b, type 1b enzyme

SMILES | IC50 [1, 3] [µM] | IC50 [2, 4] [µM] | IC50 [1, 5] [µM] | IC50 [2, 6] [µM]
CC(C)c1ccc(CNC(=O)[C@H]2CN(c3cnc(C(N)=O)cn3)CCN2S(=O)(=O)c2ccc(C(F)(F)F)cc2)cc1 [Example 377, (R)-4-(4-trifluoromethyl-benzenesulfonyl)-3,4,5,6-tetrahydro-2H-[1,2′]bipyrazinyl-3,5′-dicarboxylic acid 5′-amide 3-(4-isopropyl-benzylamide)] | < 0.1 | < 0.1 | – | –
CCC(F)(F)c1ccc(CNC(=O)[C@H]2CN(c3cnc4ccccc4n3)CCN2S(=O)(=O)c2ccc(OC(F)(F)F)cc2)cc1 [Example 632, (R)-4-quinoxalin-2-yl-1-(4-trifluoromethoxy-benzenesulfonyl)-piperazine-2-carboxylic acid 4-(1,1-difluoro-propyl)-benzylamide] | < 0.1 | < 0.1 | – | –
CCCc1ccc(CNC(=O)[C@H]2CN(c3nc(C)c(C(=O)O)s3)CCN2S(=O)(=O)c2ccc(OC(F)(F)F)c(F)c2)cc1 [Example 509, 2-[(R)-4-(3-fluoro-4-trifluoromethoxy-benzenesulfonyl)-3-(4-propyl-benzylcarbamoyl)-piperazin-1-yl]-4-methyl-thiazole-5-carboxylic acid] | < 0.1 | < 0.1 | – | –
O=C(NCc1ccc(C2CC2)cc1)[C@H]1CN(c2cnc3cncnc3n2)CCN1S(=O)(=O)c1ccc(OC(F)(F)F)cc1 [Example 656, (R)-4-pteridin-7-yl-1-(4-trifluoromethoxy-benzenesulfonyl)-piperazine-2-carboxylic acid 4-cyclopropyl-benzylamide] | < 0.1 | < 0.1 | – | –
CCOC(=O)c1nnc(NC(=O)N2CCN(S(=O)(=O)c3ccc(C(F)(F)F)cc3)[C@@H](C(=O)NCc3ccc(C(C)C)cc3)C2)o1 [Example 334, 5-{[(R)-3-(4-isopropyl-benzylcarbamoyl)-4-(4-trifluoromethyl-benzenesulfonyl)-piperazine-1-carbonyl]-amino}-[1,3,4]oxadiazole-2-carboxylic acid ethyl ester] | > 1 | > 1 | – | –
O=C(NCc1ccc(OC(F)(F)F)cc1)[C@H]1CN(c2nc3nc(C4CC4)ncc3s2)CCN1S(=O)(=O)c1ccc(OC(F)(F)F)cc1 [Example 975, (R)-4-(5-cyclopropyl-thiazolo[4,5-d]pyrimidin-2-yl)-1-(4-trifluoromethoxy-benzenesulfonyl)-piperazine-2-carboxylic acid 4-trifluoromethoxy-benzylamide] | – | – | < 0.1 | < 0.1
O=C(NCc1ccc(OC(F)(F)F)cc1)[C@H]1CN(c2cnc3cnccc3n2)CCN1S(=O)(=O)c1ccc(N2CCCC2)cc1 [Example 755, (R)-4-pyrido[3,4-b]pyrazin-2-yl-1-(4-pyrrolidin-1-yl-benzenesulfonyl)-piperazine-2-carboxylic acid 4-trifluoromethoxy-benzylamide] | – | – | < 0.1 | < 0.1
CCCc1ccc(CNC(=O)[C@H]2CN(c3cc(C)n(CC(=O)O)n3)CCN2S(=O)(=O)c2ccc(OC(F)(F)F)cc2)cc1 [Example 1094, {5-methyl-3-[(R)-3-(4-propyl-benzylcarbamoyl)-4-(4-trifluoromethoxy-benzenesulfonyl)-piperazin-1-yl]-pyrazol-1-yl}-acetic acid] | – | – | 0.1 to 1 | 0.1 to 1
CCCc1ccc(CNC(=O)[C@H]2CN(c3nc(C)c(C(=O)C(=O)OCC)s3)CCN2S(=O)(=O)c2ccc(OC(F)(F)F)cc2)cc1 [Example 846, {4-methyl-2-[(R)-3-(4-propyl-benzylcarbamoyl)-4-(4-trifluoromethoxy-benzenesulfonyl)-piperazin-1-yl]-thiazol-5-yl}-oxo-acetic acid ethyl ester] | – | – | 0.1 to 1 | < 0.1
CC(=O)N1CCN(S(=O)(=O)c2ccc(Br)c(F)c2)[C@@H](C(=O)NCc2ccc(C(C)C)cc2)C1 [Example 469, (R)-4-acetyl-1-(4-bromo-3-fluoro-benzenesulfonyl)-piperazine-2-carboxylic acid 4-isopropyl-benzylamide] | 0.1 to 1 | 0.1 to 1 | – | –
CC(=O)N1CCN(S(=O)(=O)c2ccc(Br)s2)C(C(=O)NCc2ccc(C(F)(F)F)cc2)C1 (stereo not shown) [Example 23, 4-acetyl-1-(5-bromo-thiophene-2-sulfonyl)-piperazine-2-carboxylic acid 4-trifluoromethyl-benzylamide] | > 1 | > 1 | – | –
CCC(F)(F)c1ccc(CNC(=O)[C@H]2CN(c3cnc4cncnc4n3)CCN2S(=O)(=O)c2ccc(Br)cc2)cc1 [Example 683, (R)-1-(4-bromo-benzenesulfonyl)-4-pteridin-7-yl-piperazine-2-carboxylic acid 4-(1,1-difluoro-propyl)-benzylamide] | – | – | < 0.1 | < 0.1
Cn1ncc2nc(N3CCN(S(=O)(=O)c4ccc(OC(F)(F)F)cc4)[C@@H](C(=O)NCc4ccc(OC(F)(F)F)cc4)C3)sc2c1=O [Example 904, (R)-4-(6-methyl-7-oxo-6,7-dihydro-thiazolo[4,5-d]pyridazin-2-yl)-1-(4-trifluoromethoxy-benzenesulfonyl)-piperazine-2-carboxylic acid 4-trifluoromethoxy-benzylamide] | – | – | 0.1 to 1 | < 0.1
N#Cc1cncc2ncc(N3CCN(S(=O)(=O)c4ccc(OC(F)(F)F)cc4)[C@@H](C(=O)NCc4ccc(OC(F)(F)F)cc4)C3)nc12 [Example 872, (R)-4-(8-cyano-pyrido[3,4-b]pyrazin-2-yl)-1-(4-trifluoromethoxy-benzenesulfonyl)-piperazine-2-carboxylic acid 4-trifluoromethoxy-benzylamide] | – | – | < 0.1 | < 0.1
O=C(NCc1ccc(OC(F)(F)F)cc1)[C@H]1CN(c2cnc3cnccc3n2)CCN1S(=O)(=O)c1ccc(Br)s1 [Example 775, (R)-1-(5-bromo-thiophene-2-sulfonyl)-4-pyrido[3,4-b]pyrazin-2-yl-piperazine-2-carboxylic acid 4-trifluoromethoxy-benzylamide] | – | – | < 0.1 | < 0.1
CC(=O)N1CCN(S(=O)(=O)c2ccc(C(C)C)cc2)[C@@H](C(=O)NCc2ccc(C(C)(C)CO)cc2)C1 [Example 169, (R)-4-acetyl-1-(4-isopropyl-benzenesulfonyl)-piperazine-2-carboxylic acid 4-(2-hydroxy-1,1-dimethyl-ethyl)-benzylamide] | > 1 | > 1 | – | –
CCCc1ccc(S(=O)(=O)N2CCN(C(C)=O)C[C@@H]2C(=O)NCc2ccc(C(C)C)cc2)c(F)c1 [Example 429, (R)-4-acetyl-1-(2-fluoro-4-propyl-benzenesulfonyl)-piperazine-2-carboxylic acid 4-isopropyl-benzylamide] | < 0.1 | < 0.1 | – | –
CCCc1ccc(CNC(=O)[C@H]2CN(c3nc(C(=O)O)c(CO)s3)CCN2S(=O)(=O)c2ccc(OC(F)(F)F)cc2)cc1 [Example 537, 5-hydroxymethyl-2-[(R)-3-(4-propyl-benzylcarbamoyl)-4-(4-trifluoromethoxy-benzenesulfonyl)-piperazin-1-yl]-thiazole-4-carboxylic acid] | < 0.1 | < 0.1 | – | –
CCCc1ccc(CNC(=O)[C@H]2CN(C(=O)Nc3nc(CC(=O)OCC)cs3)CCN2S(=O)(=O)c2ccc(OC(F)(F)F)cc2)cc1 [Example 470, (2-{[(R)-3-(4-propyl-benzylcarbamoyl)-4-(4-trifluoromethoxy-benzenesulfonyl)-piperazine-1-carbonyl]-amino}-thiazol-4-yl)-acetic acid ethyl ester] | 0.1 to 1 | 0.1 to 1 | – | –
COc1ccc(S(=O)(=O)N2CCN(c3nc4cn[nH]c(=O)c4s3)C[C@@H]2C(=O)NCc2ccc(OC(F)(F)F)cc2)cc1 [Example 884, (R)-1-(4-methoxy-benzenesulfonyl)-4-(7-oxo-6,7-dihydro-thiazolo[4,5-d]pyridazin-2-yl)-piperazine-2-carboxylic acid 4-trifluoromethoxy-benzylamide] | – | – | < 0.1 | < 0.1
CC(=O)N1CCN(S(=O)(=O)c2ccc(OC(F)(F)F)cc2)[C@@H](C(=O)NCc2cnc(C)cn2)C1 [Example 719, (R)-4-acetyl-1-(4-trifluoromethoxy-benzenesulfonyl)-piperazine-2-carboxylic acid (5-methyl-pyrazin-2-ylmethyl)-amide] | – | – | > 1 | > 1
O=C(NCc1ccc(OC(F)(F)F)cc1)[C@H]1CN(c2nc3nc(C4CC4)[nH]c(=O)c3s2)CCN1S(=O)(=O)c1ccc(C(F)(F)F)cc1 [Example 1107, (R)-4-(5-cyclopropyl-7-oxo-6,7-dihydro-thiazolo[4,5-d]pyrimidin-2-yl)-1-(4-trifluoromethyl-benzenesulfonyl)-piperazine-2-carboxylic acid 4-trifluoromethoxy-benzylamide] | – | – | 0.1 to 1 | < 0.1
O=C(NCc1ccc(OC(F)(F)F)cc1)[C@H]1CN(c2nc3nc(C4(CO)CC4)ncc3s2)CCN1S(=O)(=O)c1ccc(OC(F)(F)F)cc1 [Example 1077, (R)-4-[5-(1-hydroxymethyl-cyclopropyl)-thiazolo[4,5-d]pyrimidin-2-yl]-1-(4-trifluoromethoxy-benzenesulfonyl)-piperazine-2-carboxylic acid 4-trifluoromethoxy-benzylamide] | – | – | < 0.1 | < 0.1
